Experimental data: patent US20070219210A1, “Amidopyrazole Derivative” (Daiichi Pharmaceutical Co., LTD., priority 2003, published 2007)
Read-outs that look alike come from different tables or passages of the source.

Assays:
[1] = system: collagen-induced platelet coagulation; settings: background art (Patent Document 1, Non-patent Document 5); read-out: IC50 value against collagen-induced platelet coagulation; cited from earlier work
[2] = system: collagen-induced platelet coagulation; test: Inhibitory effect on collagen-induced platelet coagulation in platelet rich plasma; format: cell-based; settings: human platelet rich plasma, 37° C., coagulation induced with collagen; read-out: Inhibition of collagen-induced platelet coagulation, IC50
Description: Human blood was collected by using 1/10 volume of 3.13% sodium citrate as an anticoagulant, and the blood was centrifuged at 180 g for 10 minutes to separate platelet rich plasma (PRP), which was the upper layer. After collecting the upper layer PRP, the remaining lower layer was centrifuged at 1600 g for 10 minutes, and platelet poor plasma (PPP) in the upper layer was collected. 1 μl solution of the compound of the Examples was added to 200 μl of the PRP, and after allowing the sample to stand at 37° C. for 2 minutes, 2 μl of collagen was added in order to induce platelet coagulation. Platelet coagulation rate was measured with PAM-12C (SSR Engineering).

[3] = target: T1, Cyclooxygenase-2 (COX-2) (Homo sapiens, UniProt P35354); test: COX Inhibitor Screening Assay Kit (Cayman), PGF2α by ELISA, COX-2; format: biochemical; settings: compound at 50 μm; relative to PGF2α produced without compound (100%)
T1 construct: purchased Cayman Chemical Company 560121
T1 sequence (P35354 18-604): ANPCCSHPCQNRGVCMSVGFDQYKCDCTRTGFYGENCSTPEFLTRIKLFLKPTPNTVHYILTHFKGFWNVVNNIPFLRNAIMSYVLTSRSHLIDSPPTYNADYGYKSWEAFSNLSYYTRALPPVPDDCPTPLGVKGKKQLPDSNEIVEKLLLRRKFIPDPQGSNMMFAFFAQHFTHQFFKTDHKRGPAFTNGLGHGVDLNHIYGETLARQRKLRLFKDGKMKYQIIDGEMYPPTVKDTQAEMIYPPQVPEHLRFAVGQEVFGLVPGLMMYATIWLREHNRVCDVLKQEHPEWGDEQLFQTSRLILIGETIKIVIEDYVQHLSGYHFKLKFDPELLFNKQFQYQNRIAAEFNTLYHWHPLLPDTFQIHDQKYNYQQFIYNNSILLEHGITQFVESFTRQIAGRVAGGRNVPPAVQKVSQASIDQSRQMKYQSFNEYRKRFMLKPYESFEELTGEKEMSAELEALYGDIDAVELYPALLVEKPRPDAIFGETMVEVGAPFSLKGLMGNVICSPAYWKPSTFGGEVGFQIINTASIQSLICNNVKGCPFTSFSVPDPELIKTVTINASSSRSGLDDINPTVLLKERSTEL
Description: (§1) Inhibitory activity against COX-1 and COX-2 of the compounds produced in the Examples was measured by using COX Inhibitor Screening Assay Kit (Catalog Nos. 560101 and 560121) purchased from Cayman Chemical Company.
(§2) Before starting the measurement, reaction buffer, heme, arachidonic acid, SnCl2, EIA buffer, washing buffer, prostaglandin (PG) screening EIA standard, PG screening acetylcholine esterase (AchE), tracer (chromogenic enzyme HRP conjugate), and PC screening EIA antiserum were prepared ready for use.
(§3) The reaction mixture containing the compound of the Examples (50 μM) and COX-1 or COX-2 was allowed to stand at 37° C. or 10 minutes, and after adding 10 μl of arachidonic acid, the solution was again allowed to stand at 37° C. for 2 minutes. After the reaction, the reaction was terminated by adding 50 μl of 1N-hydrochloric acid, and 100 μl solution of SnCl2 was added, and the reaction mixture was allowed to stand at room temperature for 5 minutes.
(§4) 50 μl of antiserum (rabbit anti-PGF2α antibody) was placed in the wells of 96 well plate that had been coated with mouse anti-rabbit IgG and 50 μl of the 2000-fold diluted PGF2α-containing liquid described above and 50 μl of AchE tracer were added to the well in this order, and the mixture was allowed to stand at room temperature for 18 hours. The wells were washed 5 times with the washing buffer to remove an excessive AchE tracer, and 200 μl of Ellman reagent was added. After leaving the plate in a dark room for 60 minutes, absorbance was measured at 405 nm.
(§5) A calibration curve was obtained by using the PG screening EIA standard, and the amount of PGF2α produced was determined from the absorption. Inhibitory rate at 50 μM of the compound of the Examples against COX-1 or COX-2 was calculated.
(§6) It is to be noted that the inhibitory rate was calculated in relation to the amount of the PGF2α produced by the reaction liquid free from the compounds of the Examples, which was taken 100%.

[4] = target: T2, Cyclooxygenase-1 (COX-1) (Ovis aries, UniProt P05979); test: COX Inhibitor Screening Assay Kit (Cayman), PGF2α by ELISA, COX-1; format: biochemical; settings: compound at 50 μm; relative to PGF2α produced without compound (100%)
T2 construct: purchased Cayman Chemical Company 560101
T2 sequence (P05979 25-600): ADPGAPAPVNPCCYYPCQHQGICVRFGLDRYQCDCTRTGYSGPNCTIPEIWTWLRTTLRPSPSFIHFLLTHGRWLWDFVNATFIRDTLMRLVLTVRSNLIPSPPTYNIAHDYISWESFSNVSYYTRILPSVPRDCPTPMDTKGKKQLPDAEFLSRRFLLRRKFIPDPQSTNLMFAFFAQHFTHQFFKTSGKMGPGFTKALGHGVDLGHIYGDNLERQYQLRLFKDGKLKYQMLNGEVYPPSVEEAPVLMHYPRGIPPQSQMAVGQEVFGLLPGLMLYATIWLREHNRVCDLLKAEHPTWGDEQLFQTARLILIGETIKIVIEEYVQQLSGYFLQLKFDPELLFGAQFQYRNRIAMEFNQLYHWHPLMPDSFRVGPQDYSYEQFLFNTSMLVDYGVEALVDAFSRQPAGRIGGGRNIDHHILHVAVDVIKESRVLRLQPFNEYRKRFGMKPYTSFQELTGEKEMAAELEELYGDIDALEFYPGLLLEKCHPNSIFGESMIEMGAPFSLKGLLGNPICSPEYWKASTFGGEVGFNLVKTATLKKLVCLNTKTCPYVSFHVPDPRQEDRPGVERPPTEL
Description: as §1, §2, §3, §4, §5, §6

## CS(=O)(=O)c1ccc(-c2cc(C#N)nn2-c2ccc(F)cc2)cc1 [Compound (A)]
[1]
  IC50: 5300 nM

## CC(C)(C)NC(=O)c1cc(-c2ccc(O)cn2)n(-c2cccnc2)n1 [Example 22, N-tert-Butyl-5-(5-hydroxy-2-pyridyl)-1-(3-pyridyl)-1H-pyrazole-3-carboxamide]
[2]
  IC50: 210 nM
[3]
  Inhibitory effect against COX-2 at 50 μm (% inhibition): 4.2 % inhibition
[4]
  Inhibitory effect against COX-1 at 50 μm (% inhibition): 0.8 % inhibition

## Cc1cnc(-c2cc(C(=O)NC(C)(C)C)nn2-c2cccnc2)cn1 [Example 65, N-tert-Butyl-5-(5-methyl-2-pyrazinyl)-1-(3-pyridyl)-1H-pyrazole-3-carboxamide]
[2]
  IC50: 20 nM
[3]
  Inhibitory effect against COX-2 at 50 μm (% inhibition): −1.6 % inhibition
[4]
  Inhibitory effect against COX-1 at 50 μm (% inhibition): 11.6 % inhibition

## COc1ccc(-n2nc(C(=O)NC(C)(C)C)cc2-c2cnccn2)cn1 [Example 13, N-tert-Butyl-1-(6-methoxy-3-pyridyl)-5-(2-pyrazinyl)-1H-pyrazole-3-carboxamide]
[2]
  IC50: 18 nM
[3]
  Inhibitory effect against COX-2 at 50 μm (% inhibition): 9.2 % inhibition
[4]
  Inhibitory effect against COX-1 at 50 μm (% inhibition): 13.9 % inhibition

## COc1ccc(-n2nc(C(=O)NC3CCCC3)cc2-c2ccccn2)nn1 [Example 56, N-Cyclopentyl-1-(6-methoxy-3-pyridazinyl)-5-(2-pyridyl)-1H-pyrazole-3-carboxamide]
[2]
  IC50: 92 nM
[3]
  Inhibitory effect against COX-2 at 50 μm (% inhibition): −1.7 % inhibition
[4]
  Inhibitory effect against COX-1 at 50 μm (% inhibition): −1.2 % inhibition

## CC(C)(C)NC(=O)c1cc(-c2ccc(Cl)cn2)n(-c2cccnc2)n1 [Example 28, N-tert-Butyl-5-(5-chloro-2-pyridyl)-1-(3-pyridyl)-1H-pyrazole-3-carboxamide]
[2]
  IC50: 8.9 nM
[3]
  Inhibitory effect against COX-2 at 50 μm (% inhibition): 7.6 % inhibition
[4]
  Inhibitory effect against COX-1 at 50 μm (% inhibition): 5.4 % inhibition

## COc1ccc(-n2nc(C(=O)NCC3CCCO3)cc2-c2ccccn2)cn1 (stereo not shown) [Example 44, N-(Tetrahydro-2-furanylmethyl)-1-(6-methoxy-3-pyridyl)-5-(2-pyridyl)-1H-pyrazole-3-carboxamide]
[2]
  IC50: 140 nM
[3]
  Inhibitory effect against COX-2 at 50 μm (% inhibition): 3.6 % inhibition
[4]
  Inhibitory effect against COX-1 at 50 μm (% inhibition): 4.3 % inhibition
